Source: ChEMBL document CHEMBL1144099, “Three new antibacterial alkaloids from a marine sponge Stelletta species” (1999)

test system: Escherichia coli; assay: Antibacterial activity against Escherichia coli at 20 ug/6 mm disk; type: functional

Row | Compound | inhibition zone (IZ) [mm]
1 | CC(C)=CCC/C(C)=C/CC/C(C)=C/CC(=O)NC[C@@H]1CC[N+]2(C)CCCC[C@H]12.[Cl-] (stereo partly drawn) [STELLETTAMIDE C] | 10.5
2 | CC(C)=CCC/C(C)=C/CC/C(C)=C/CC/C(C)=C/C(=O)NCCc1cn(CCCNC(=N)N)c[n+]1C.[Cl-] [STELLETTAZOLE B] | 6.1
3 | CC(C)=CCC/C(C)=C/CC/C(C)=C/CC/C(C)=C/C(=O)NCCc1cn(CCCN)c[n+]1C.[Cl-] [STELLETTAZOLE C] | 6.2
